{"source": "patent US20100137327A1", "about": "“NOVEL SEM[…] CARBONYLHYDRAZIDE DERIVATIVES USEFUL AS POTASSIUM CHANNEL MODULATORS” (NeuroSearch A/S, priority 2007, published 2010)", "molecular_target": "BK channels heterologously expressed in Xenopus laevis oocytes (Homo sapiens, UniProt Q12791)", "sequence (Q12791 whole entry)": "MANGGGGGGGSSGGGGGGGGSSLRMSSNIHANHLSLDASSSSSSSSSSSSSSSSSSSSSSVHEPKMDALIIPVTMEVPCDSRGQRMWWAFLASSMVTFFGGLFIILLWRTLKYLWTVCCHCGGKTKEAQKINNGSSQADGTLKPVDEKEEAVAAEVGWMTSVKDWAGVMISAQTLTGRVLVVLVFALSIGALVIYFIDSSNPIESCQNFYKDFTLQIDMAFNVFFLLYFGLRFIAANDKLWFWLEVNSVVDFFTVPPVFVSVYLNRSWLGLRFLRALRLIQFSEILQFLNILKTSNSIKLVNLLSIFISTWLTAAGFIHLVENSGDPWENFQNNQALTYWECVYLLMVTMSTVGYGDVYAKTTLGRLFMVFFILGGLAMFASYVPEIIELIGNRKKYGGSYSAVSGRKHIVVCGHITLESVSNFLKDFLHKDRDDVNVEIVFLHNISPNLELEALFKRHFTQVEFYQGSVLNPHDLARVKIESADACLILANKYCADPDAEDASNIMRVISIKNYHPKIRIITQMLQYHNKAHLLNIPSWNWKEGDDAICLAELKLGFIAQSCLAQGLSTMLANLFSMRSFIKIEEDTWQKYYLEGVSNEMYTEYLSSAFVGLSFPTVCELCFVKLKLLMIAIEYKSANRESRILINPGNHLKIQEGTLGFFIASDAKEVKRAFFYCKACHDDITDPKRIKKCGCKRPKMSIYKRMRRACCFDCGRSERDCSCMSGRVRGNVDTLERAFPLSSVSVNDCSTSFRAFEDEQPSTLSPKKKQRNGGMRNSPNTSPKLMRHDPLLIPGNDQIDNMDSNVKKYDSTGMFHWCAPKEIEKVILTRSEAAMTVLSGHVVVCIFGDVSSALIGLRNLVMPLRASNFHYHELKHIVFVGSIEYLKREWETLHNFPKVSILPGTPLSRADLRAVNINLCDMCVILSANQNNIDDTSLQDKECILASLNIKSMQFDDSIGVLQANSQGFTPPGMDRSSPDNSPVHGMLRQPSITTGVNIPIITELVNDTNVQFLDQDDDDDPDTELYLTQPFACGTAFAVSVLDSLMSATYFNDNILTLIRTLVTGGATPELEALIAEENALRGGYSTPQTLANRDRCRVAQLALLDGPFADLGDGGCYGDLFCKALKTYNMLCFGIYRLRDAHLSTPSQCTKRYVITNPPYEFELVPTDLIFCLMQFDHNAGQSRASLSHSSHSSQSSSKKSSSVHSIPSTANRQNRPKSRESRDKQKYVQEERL", "conditions": "30 μM compound added after stable current level, step from −40 mV (5 s) to +30 mV (1 s), repeated, FIG. 1", "method": "The electrical current through the BK channel is measured conventional two-electrode voltage clamp. BK current is activated by repeated step protocols. In brief, this protocol goes from a resting membrane potential of −40 mV lasting for 5 s to a depolarised step to +30 mV lasting for 1 s. The protocol was repeated continuously.\nHaving reached a stable current level, Compound A (30 μM), was added."}
{"smiles": "O=C(NNc1ccc(-c2ccc(C(F)(F)F)cc2)cc1-c1nnn[nH]1)c1cc(C(F)(F)F)cc(C(F)(F)F)c1", "note": "[Compound A, 3,5-Bis-trifluoromethyl-benzoic acid N40-[3-(1H-tetrazol-5-yl)-4′-trifluoromethyl-biphenyl-4-yl]-hydrazide]", "values": [{"measurement": "current activated by depolarisation (BK channel opening activity)", "value": "marked increase"}]}
